Data published in patent EP0974594A1, “Artemisinin derivatives as anti-infective agent” (The Hong Kong University of Science & Technology, priority 1998, dated 2000).
Converted amounts (≈) assume the structure as drawn. Like-named read-outs stand apart in the source and are kept apart here.

Key:
Type in all cases: cell-based
[1] = system: Plasmodium Falciparum W2 Strain (Chloroquine resistant); experiment: In vitro screening against Plasmodium falciparum, radiolabelled hypoxanthine incorporation, W2 strain; settings: for IC50 / IC90: Plasmodium falciparum; for IC50: read-out: In vitro activity: IC50; for IC90: read-out: In vitro activity: IC90
Method: (§1) (c) In Vitro Screening against Plasmodium Falciparum
Two parasite strains - W2 resistant to chloroquine, and D6 sensitive to chloroquine but resistant to mefloquine were used.
The assay relies on incorporation of radiolabelled hypoxanthine by the parasite and inhibition of incorporation is attributed to activity of known or candidate antimalarial drugs. For each assay, proven antimalarials such as chloroquine, mefloquine, quinine, artemisinin and pyrimethamine were used as controls. The incubation period was 66 hours, and the starting parasitemia was 0.2% with 1% hematocrit. The medium was an RPMI-1640 culture with no folate or p-aminobenzoic acid. […] If a compound was submitted with no prior knowledge of activity, it was dissolved directly in dimethyl sulphoxide (DMSO), and diluted 400 fold with complete culture medium. […] These dilutions were performed automatically by a Biomek 1000 Liquid Handling System in 96-well microtiter plates. The diluted drugs were then transferred to test plates, 200 µl of parasitized erythrocytes were added, and incubated at 37°C in a controlled environment of 5% CO2, 5% O2 and 90% N2. After 42 hours, 25 µl of ^3H-hypoxanthine was added, and the plates incubated for an additional 24 hours. After 66 hours, the plates were frozen at -70°C to lyse the red cells, and then thawed and harvested onto glass fiber filter mats in a 96-well harvester. The filter mats were then counted in a scintillation counter. For each drug, the concentration response profile was determined and 50%, 90% and 10% inhibitory concentrations (IC50, IC90 and IC10) were determined by a non-linear logistic dose response analysis program.
(§2) A prescreen format can be used wherein a 3-dilution assay may be used to determine activity at high medium or low concentrations. The concentrations were selected as 50,000, 500 and 50 ng ml^-1. These were performed in duplicate on a 96-well format plate with 14 test compounds and one known (standard) compound per plate. The system was automated with a Biomek diluter for mixing and diluting the drugs, and adding drugs and parasites to a test plate.
In the prescreen format, if the […] […] If the AF has a ">", then the IC value is greater than the prescreen dilution value; thus "AF>250" means that the IC value is greater than 250 ng ml^-1 and no further screening is carried out. In such cases, values of 0.00 are entered for IC values.

[2] = system: Plasmodium Falciparum D6 Strain (Chloroquine sensitive); experiment: In vitro screening against Plasmodium falciparum, radiolabelled hypoxanthine incorporation, D6 strain; settings: for IC50 / IC90: Plasmodium falciparum; for IC50: read-out: In vitro activity: IC50; for IC90: read-out: In vitro activity: IC90
Description: as §1
Two parasite strains - W2 resistant to chloroquine, and D6 sensitive to chloroquine but resistant to mefloquine were used. In Table IV below, the best compounds should show no cross resistance between the two strains.
The assay relies on incorporation of radiolabelled hypoxanthine by the parasite and inhibition of incorporation is attributed to activity of known or candidate antimalarial drugs. For each assay, proven antimalarials such as chloroquine, mefloquine, quinine, artemisinin and pyrimethamine were used as controls. The incubation period was 66 hours, and the starting parasitemia was 0.2% with 1% hematocrit. The medium was an RPMI-1640 culture with no folate or p-aminobenzoic acid. Albumax rather than 10% normal heat inactivated human plasma was used as, with Albumax, less protein binding is observed, and compounds elicit slightly higher activities in this model. If a compound was submitted with no prior knowledge of activity, it was dissolved directly in dimethyl sulphoxide (DMSO), and diluted 400 fold with complete culture medium. The unknown compound was started at a maximum concentration of 50,000 ng ml^-1 and sequentially diluted 2-fold for 11 times to give a concentration range of 1048 fold. These dilutions were performed automatically by a Biomek 1000 Liquid Handling System in 96-well microtiter plates. The diluted drugs were then transferred to test plates, 200 µl of parasitized erythrocytes were added, and incubated at 37°C in a controlled environment of 5% CO2, 5% O2 and 90% N2. After 42 hours, 25 µl of ^3H-hypoxanthine was added, and the plates incubated for an additional 24 hours. After 66 hours, the plates were frozen at -70°C to lyse the red cells, and then thawed and harvested onto glass fiber filter mats in a 96-well harvester. The filter mats were then counted in a scintillation counter. For each drug, the concentration response profile was determined and 50%, 90% and 10% inhibitory concentrations (IC50, IC90 and IC10) were determined by a non-linear logistic dose response analysis program.
as §2
In the prescreen format, if the ANALYSIS FIELD (AF) has a "<", then the compound was "very active" and the IC values are most likely to be below the last dilution value (in nanograms/ml), which is listed next to AF. In most cases, these compounds were run again at lower starting concentration to determine the true IC value. If the AF has a ">", then the IC value is greater than the prescreen dilution value; thus "AF>250" means that the IC value is greater than 250 ng ml^-1 and no further screening is carried out. In such cases, values of 0.00 are entered for IC values.

Eimeria tenella = experiment: Screening of compounds against Eimeria tenella cell cultures in vitro (chick kidney cell monolayers, microscopic evaluation); settings: chick kidney cells, day 5 post infection
Method: (b) Screening of Compounds again Eimeria Tenella cell cultures in vitro
Cells from kidneys of 19 day old chicks are cultured as monolayers in 96-well plates (Falcon 3872) in a medium of Hanks lactalbumine hydrolysate, 5% fetal calf serum, 1% glutamine and 1% non-essential amino acids. After two days at 42°C under 5% CO2, the culture was infected with excised sporozoites of Eimeria tenella at about […] per well. Test compounds were dissolved in DMSO and diluted with culture medium to a maximum end concentration of 10µg ml^-1. The dilution steps were 1:10. On day 5 post infection, the cultures were evaluated under a microscope at 100-fold magnification and the condition of the host cells and the amount of intact schizonts and free merozoites was determined.

[3] = system: Neospora caninum tachyzoites; experiment: Screening of compounds against Neospora caninum cell cultures in vitro (microscopic evaluation of infected host cell monolayer); parameters: key: 0 = no effect; 1 = weak effect; 2 = full effect; T = cytotoxic; settings: VERO or ED host cells, evaluation 4 days after treatment
Method: (a) Screening of compounds against Neospora Caninum cell cultures in vitro.
Screening was conducted in 96-well plates (Falcon 3872). A monolayer of host cells (VERO or ED) were placed on a cell culture plate. Non-infected monolayers of cells were cultured in two 50 ml tissue culture bottles (50 cm^3 cell culture area). The cell layer was detached with trypsin-EDTA (5 ml. Gibco 45300-019) in a CO2-culture cupboard at 37°C. After 10 minutes, most of the cells were detached. The cells were transferred with a 5 ml pipette into a 50 ml centrifuge tube (Greiner, B769331) containing about 1 ml warmed fetal calf serum. After centrifugation for 5 minutes at 1500 rpm (Varifuge 3.0, Heraeus), the liquid was removed and the cell pellet suspended in RPMI medium (100 ml, 95% RPMI 1640, 2% FCS, 1% L-glutamine, 1% sodium hydrogen carbonate, 1% penicillin/streptomycin). The cell suspension was pipetted into six 96-well plates at 150 µl per well. The coated cell culture plates were placed in an incubation cupboard at 37°C under 5% CO2 for 24 hours. The cells were then infected with Neospora caninum tachyzoites at a concentration of 48,000 tachyzoites per well. This was followed by incubation at 37°C under 5% CO2 for 24 hours.
The test compounds (0.5 - 1.5 mg) were weighed into 1.5 ml eppendorf vessels and dissolved in 1 ml dimethyl sulphoxide, corresponding to a dilution of about 1 x 10^-3 g ml^-1. The medium used for further dilution consisted of 87% RPMI 1640, 10% FCS, 1% L-glutamine, 1% sodium hydrogen carbonate, 1% penicillin/streptomycin. In the first screening, concentrations of 10^-5, 10^-6 and 10^-7 g ml^-1 were used. The diluted preparations were then transferred to the cell culture plates at a volume of 150 µl per well after 24 hour infection with Neospora caninum. For the first row, untreated medium was used; this row contained infected and uninfected cells as controls. The cell plate was incubated at 37°C under 5% CO2 for 5 days. Microscopic evaluation was conducted 4 days after treatment and 5 days after infection at a magnification of 25 x 10 in an inverse microscope according to the following evaluation scheme.

[4] = D6 Strain (Chloroquine sensitive), 66 hours incubation

Row | Compound | IC50 ([1]; W2, 66 h) [ng/mL] | IC90 ([1]; W2, 66 h) [ng/mL] | In vitro activity: (IC10) ([1]; W2, 66 h) [ng/mL] | In vitro activity: (IC10) [2, 4] [ng/mL] | IC50 [2, 4] [ng/mL] | IC90 [2, 4] [ng/mL] | Evaluation (effectiveness) (Eimeria tenella; Dose 10^-5 g/ml) | Evaluation (effectiveness) (Eimeria tenella; Dose 10^-6 g/ml) | Evaluation (effectiveness) (Eimeria tenella; Dose 10^-7 g/ml) | Evaluation (observable effect) ([3]; Dose 10^-5 g/ml) | Evaluation (observable effect) ([3]; Dose 10^-6 g/ml) | Evaluation (observable effect) ([3]; Dose 10^-7 g/ml) | In vitro activity: (IC10) ([1]; W2 Strain (Chloroquine resistant), 66 hours incubation) [ng/mL] | Evaluation (effectiveness) (Eimeria tenella; Dose 10^-8 g/ml) | IC50 ([2]; D6, 66 h) [ng/mL] | IC90 ([2]; D6, 66 h) [ng/mL]
1 | C[C@H]1[C@@H](OC(=O)c2ccc3c(c2)C(=O)c2ccccc2C3=O)O[C@@H]2O[C@@]3(C)CC[C@H]4[C@H](C)CC[C@@H]1[C@@]24OO3 [Example 7] | 0.48 (≈ 0.926 nM) | 1.1 (≈ 2.12 nM) | 0.21 | 0.27 | 0.44 (≈ 0.849 nM) | 0.71 (≈ 1.37 nM) |  |  |  |  |  |  |  |  |  | 
2 | C[C@@H]1CC[C@H]2[C@@H](C)C(=O)O[C@@H]3O[C@@]4(C)CC[C@@H]1[C@]32OO4 [Artemisinin, artemisinin] |  |  |  |  |  |  | 2 (2 = active) | 1 (1 = weakly active) | 0 (0 = inactive) | 0 |  |  |  |  |  | 
3 | C[C@H]1[C@@H](OC(=O)c2ccccc2)O[C@@H]2O[C@@]3(C)CC[C@H]4[C@H](C)CC[C@@H]1[C@@]24OO3 [Example 2, 10β-dihydroartemisinyl benzoate] | 0.07 (≈ 0.18 nM) | 0.21 (≈ 0.541 nM) | 0.03 | 0.02 | 0.03 (≈ 0.0772 nM) | 0.03 (≈ 0.0772 nM) | 2 (2 = active) | 2 (2 = active) | 0 (0 = inactive) | 2 | 1 | 0 |  |  |  | 
4 | CC(=O)O[C@@H]1O[C@@H]2O[C@@]3(C)CC[C@H]4[C@H](C)CC[C@@H]([C@H]1C)[C@@]24OO3 [Example 1, 10-dihydroartemisinyl ethanoate] | 119 (≈ 365 nM) | 163 (≈ 500 nM) |  | 127.91 |  |  |  |  | 1 (1 = weakly active) | 2 | 1 | 0 | 86.88 | 0 (0 = inactive) | 172 (≈ 526 nM) | 231 (≈ 706 nM)
5 | C[C@H]1[C@H](OC(=O)CCC(=O)[O-])O[C@@H]2O[C@@]3(C)CC[C@H]4[C@H](C)CC[C@@H]1[C@@]24OO3.[Na+] [Sodium Artesunate, sodium artesunate] |  |  |  |  |  |  |  | 2 (2 = active) | 2 (2 = active) | 2 | 0 |  |  | 0 (0 = inactive) |  | 
